From paper PMC5218480 (PLoS ONE, 2017)

Tested on: MV-4-11 cells
Assay: Gene expression microarray analysis (Affymetrix PrimeView) and GSEA
Format: cell-based, human
Set-up: RFU PODN (11730768_x_at) / Fold change /veh PODN (11730768_x_at) / RFU LINC00158 (11744669_a_at) / Fold change /veh LINC00158 (11744669_a_at) / RFU DUSP10 (11751237_a_at) / Fold change /veh DUSP10 (11751237_a_at) / RFU ID3 (11757404_x_at) / Fold change /veh ID3 (11757404_x_at) / RFU PLEKHG5 (11737974_s_at) / Fold change /veh PLEKHG5 (11737974_s_at) / RFU LRRC4B (11730491_at) / Fold change /veh LRRC4B (11730491_at) / RFU GIMAP4 (11747438_a_at) / Fold change /veh GIMAP4 (11747438_a_at) / RFU KRT8 (11758183_x_at) / Fold change /veh KRT8 (11758183_x_at) / RFU CNN1 (11734310_a_at) / Fold change /veh CNN1 (11734310_a_at) / RFU VPS37D (11726825_at) / Fold change /veh VPS37D (11726825_at) / RFU C10orf10 (11716522_x_at) / Fold change /veh C10orf10 (11716522_x_at) / RFU KIR2DL2 /// KIR2DL4 /// KIR2DL5A /// KIR2DL5B /// KIR2DS1 /// KIR2DS2 /// KIR2DS3 /// KIR2DS4 /// KIR3DL3 /// KIR3DL3 /// KIR3DS1 (11738374_at) / Fold change /veh KIR2DL2 /// KIR2DL4 /// KIR2DL5A /// KIR2DL5B /// KIR2DS1 /// KIR2DS2 /// KIR2DS3 /// KIR2DS4 /// KIR3DL3 /// KIR3DL3 /// KIR3DS1 (11738374_at) / RFU C1QL1 (11718748_at) / Fold change /veh C1QL1 (11718748_at) / RFU TMPRSS4 (11747572_a_at) / Fold change /veh TMPRSS4 (11747572_a_at) / RFU HAMP (11756126_x_at) / Fold change /veh HAMP (11756126_x_at) / RFU RNFT2 (11725882_a_at) / Fold change /veh RNFT2 (11725882_a_at) / RFU NR4A2 (11747474_a_at) / Fold change /veh NR4A2 (11747474_a_at) / RFU ABCC12 (11746883_a_at) / Fold change /veh ABCC12 (11746883_a_at) / RFU TMEM136 (11760407_x_at) / Fold change /veh TMEM136 (11760407_x_at) / RFU CLDN22 /// WWC2 (11732394_at) / Fold change /veh CLDN22 /// WWC2 (11732394_at) / RFU HLA-DPB1 (11760878_x_at) / Fold change /veh HLA-DPB1 (11760878_x_at) / RFU SPINT1 (11716480_a_at) / Fold change /veh SPINT1 (11716480_a_at) / RFU GAP43 (11754022_s_at) / Fold change /veh GAP43 (11754022_s_at) / RFU A4GNT (11735810_at) / Fold change /veh A4GNT (11735810_at) / RFU PRB3 (11715151_x_at) / Fold change /veh PRB3 (11715151_x_at) / RFU TUBB4B (11761932_at) / Fold change /veh TUBB4B (11761932_at) / RFU CAPN14 (11732068_a_at) / Fold change /veh CAPN14 (11732068_a_at) / RFU TMCC2 (11721928_a_at) / Fold change /veh TMCC2 (11721928_a_at) / RFU IRGQ (11745062_a_at) / Fold change /veh IRGQ (11745062_a_at) / RFU FAM174B (11720279_a_at) / Fold change /veh FAM174B (11720279_a_at) / RFU TMPRSS4 (11748680_a_at) / Fold change /veh TMPRSS4 (11748680_a_at) / RFU FAM212B (11763350_a_at) / Fold change /veh FAM212B (11763350_a_at) / RFU PLEKHG5 (11743358_a_at) / Fold change /veh PLEKHG5 (11743358_a_at) / RFU ZSCAN30 (11745921_a_at) / Fold change /veh ZSCAN30 (11745921_a_at) / RFU CMKLR1 (11741424_a_at) / Fold change /veh CMKLR1 (11741424_a_at) / RFU LOC101060620 /// MAPK8IP1 (11723275_at) / Fold change /veh LOC101060620 /// MAPK8IP1 (11723275_at) / RFU SPTSSB (11747773_x_at) / Fold change /veh SPTSSB (11747773_x_at) / RFU PRSS12 (11739890_at) / Fold change /veh PRSS12 (11739890_at) / RFU BIN1 (11741810_x_at) / Fold change /veh BIN1 (11741810_x_at) / RFU WNT11 (11732464_a_at) / Fold change /veh WNT11 (11732464_a_at) / RFU C10orf10 (11716521_a_at) / Fold change /veh C10orf10 (11716521_a_at) / RFU C5orf56 (11738089_at) / Fold change /veh C5orf56 (11738089_at) / RFU CYB561 (11721691_x_at) / Fold change /veh CYB561 (11721691_x_at) / RFU ANKRD19P (11752326_a_at) / Fold change /veh ANKRD19P (11752326_a_at) / RFU OR2T12 /// OR2T33 /// OR2T8 (11738714_s_at) / Fold change /veh OR2T12 /// OR2T33 /// OR2T8 (11738714_s_at) / RFU VCAN (11748164_a_at) / Fold change /veh VCAN (11748164_a_at) / RFU JSRP1 (11732532_at) / Fold change /veh JSRP1 (11732532_at) / RFU KRTAP10-11 (11738290_x_at) / Fold change /veh KRTAP10-11 (11738290_x_at) / RFU MYO3A (11730013_a_at) / Fold change /veh MYO3A (11730013_a_at) / RFU EBF3 (11725865_a_at) / Fold change /veh EBF3 (11725865_a_at) / RFU CAMK2N1 (11719241_x_at) / Fold change /veh CAMK2N1 (11719241_x_at) / RFU C5orf56 (11738088_a_at) / Fold change /veh C5orf56 (11738088_a_at) / RFU OLFML3 (11715873_a_at) / Fold change /veh OLFML3 (11715873_a_at) / RFU LOC100653217 /// NTM (11731650_a_at) / Fold change /veh LOC100653217 /// NTM (11731650_a_at) / RFU MAPK11 (11762145_a_at) / Fold change /veh MAPK11 (11762145_a_at) / RFU FIZ1 (11724087_x_at) / Fold change /veh FIZ1 (11724087_x_at) / RFU OASL (11726364_x_at) / Fold change /veh OASL (11726364_x_at) / RFU SOX15 (11748057_x_at) / Fold change /veh SOX15 (11748057_x_at) / RFU CD79A (11719716_a_at) / Fold change /veh CD79A (11719716_a_at) / RFU HIST1H1D (11736915_at) / Fold change /veh HIST1H1D (11736915_at) / RFU CASKIN2 (11723855_a_at) / Fold change /veh CASKIN2 (11723855_a_at) / RFU LOC730098 (11760151_x_at) / Fold change /veh LOC730098 (11760151_x_at) / RFU OR4N2 (11742367_at) / Fold change /veh OR4N2 (11742367_at) / RFU PRRT2 (11749266_a_at) / Fold change /veh PRRT2 (11749266_a_at) / RFU SNX32 (11753110_a_at) / Fold change /veh SNX32 (11753110_a_at) / RFU CDHR5 (11726645_a_at) / Fold change /veh CDHR5 (11726645_a_at) / RFU RCAN1 (11760418_a_at) / Fold change /veh RCAN1 (11760418_a_at) / RFU FAM167A (11723789_a_at) / Fold change /veh FAM167A (11723789_a_at) / RFU FAM26E (11764081_at) / Fold change /veh FAM26E (11764081_at) / RFU ISYNA1 (11749810_s_at) / Fold change /veh ISYNA1 (11749810_s_at) / RFU ACY1 (11761880_at) / Fold change /veh ACY1 (11761880_at) / RFU 11764098_at / Fold change /veh 11764098_at / RFU SAMD14 (11745864_x_at) / Fold change /veh SAMD14 (11745864_x_at) / RFU NPB (11741838_a_at) / Fold change /veh NPB (11741838_a_at) / RFU TMPRSS6 (11731388_a_at) / Fold change /veh TMPRSS6 (11731388_a_at) / RFU KRTAP10-2 (11738614_at) / Fold change /veh KRTAP10-2 (11738614_at) / RFU ARHGAP8 /// PRR5-ARHGAP8 (11727945_x_at) / Fold change /veh ARHGAP8 /// PRR5-ARHGAP8 (11727945_x_at) / RFU KRTAP5-7 /// NADSYN1 (11734609_at) / Fold change /veh KRTAP5-7 /// NADSYN1 (11734609_at) / RFU RASL12 (11751679_a_at) / Fold change /veh RASL12 (11751679_a_at) / RFU CDKN2B (11736163_a_at) / Fold change /veh CDKN2B (11736163_a_at) / RFU PRF1 (11729649_at) / Fold change /veh PRF1 (11729649_at) / RFU, ZNF638 /// ZNF638-IT1 / Fold change vs veh, ZNF638 /// ZNF638-IT1 / RFU, PANK3 / Fold change vs veh, PANK3 / RFU, SH3YL1 / Fold change vs veh, SH3YL1 / RFU, ZEB2 / Fold change vs veh, ZEB2 / RFU, NRIP1 / Fold change vs veh, NRIP1 / RFU, PTTG1IP / Fold change vs veh, PTTG1IP / RFU, CAPN2 / Fold change vs veh, CAPN2 / RFU, MED14 / Fold change vs veh, MED14 / RFU, SNORA58 / Fold change vs veh, SNORA58 / RFU, C1orf63 / Fold change vs veh, C1orf63 / RFU, LRRFIP1 / Fold change vs veh, LRRFIP1 / RFU, NDUFAF7 / Fold change vs veh, NDUFAF7 / RFU, SLC12A2 / Fold change vs veh, SLC12A2 / RFU, IBTK / Fold change vs veh, IBTK / RFU, ESF1 / Fold change vs veh, ESF1 / Fold change vs veh, TMEM50B / RFU, TAOK1 / Fold change vs veh, TAOK1 / RFU, ACBD3 / Fold change vs veh, ACBD3 / RFU, TMA16 / Fold change vs veh, TMA16 / RFU, RWDD3 / Fold change vs veh, RWDD3 / RFU, BCAT1 / Fold change vs veh, BCAT1 / RFU, EDEM3 / Fold change vs veh, EDEM3 / RFU, TMEM33 / Fold change vs veh, TMEM33 / RFU, WDR75 / Fold change vs veh, WDR75 / RFU, AHCTF1 / Fold change vs veh, AHCTF1 / RFU, TFRC / Fold change vs veh, TFRC / RFU, ZDHHC17 / Fold change vs veh, ZDHHC17 / RFU, NOM1 / Fold change vs veh, NOM1 / RFU, ARL8B / Fold change vs veh, ARL8B / RFU, ZBTB11 / Fold change vs veh, ZBTB11 / RFU, TAMM41 / Fold change vs veh, TAMM41 / RFU, KIAA1704 /// LOC100996395 / Fold change vs veh, KIAA1704 /// LOC100996395 / RFU, ING1 / Fold change vs veh, ING1 / RFU, TRMT61B / Fold change vs veh, TRMT61B / RFU, FUBP3 / Fold change vs veh, FUBP3 / RFU, TP53 / Fold change vs veh, TP53 / RFU, TNKS2 / Fold change vs veh, TNKS2 / RFU, ZFP14 / Fold change vs veh, ZFP14 / RFU, ACTR2 / Fold change vs veh, ACTR2 / RFU, PPP3R1 / Fold change vs veh, PPP3R1 / RFU, PIK3R1 / Fold change vs veh, PIK3R1 / RFU, HNRNPA1 / Fold change vs veh, HNRNPA1 / RFU, RNF170 / Fold change vs veh, RNF170 / RFU, ZNF28 / Fold change vs veh, ZNF28 / RFU, RNGTT / Fold change vs veh, RNGTT / RFU, OGT / Fold change vs veh, OGT / RFU, BRD1 / Fold change vs veh, BRD1 / RFU, MARS / Fold change vs veh, MARS / RFU, ZNF655 / Fold change vs veh, ZNF655 / RFU, FAHD1 / Fold change vs veh, FAHD1 / RFU, BDP1 / Fold change vs veh, BDP1 / RFU, LRRCC1 / Fold change vs veh, LRRCC1 / RFU, ARID1A / Fold change vs veh, ARID1A / RFU, ZNF146 / Fold change vs veh, ZNF146 / RFU, ZNF330 / Fold change vs veh, ZNF330 / RFU, GPN3 / Fold change vs veh, GPN3 / RFU, C9orf123 / Fold change vs veh, C9orf123 / RFU, N4BP2L2 / Fold change vs veh, N4BP2L2 / RFU, ARFIP1 / Fold change vs veh, ARFIP1 / RFU, FAM179B / Fold change vs veh, FAM179B / RFU, BCL10 / Fold change vs veh, BCL10 / RFU, UHRF1BP1L / Fold change vs veh, UHRF1BP1L / RFU, BET1 / Fold change vs veh, BET1 / RFU, CNOT2 / Fold change vs veh, CNOT2 / RFU, ZNF268 / Fold change vs veh, ZNF268 / Fold change vs veh, ZNF507 / RFU, DGCR2 / Fold change vs veh, DGCR2 / RFU, WDSUB1 / Fold change vs veh, WDSUB1 / Fold change vs veh, HSP90B1 /// MIR3652 / RFU, ADSS / Fold change vs veh, ADSS / RFU, GK / Fold change vs veh, GK / RFU, ZNF148 / Fold change vs veh, ZNF148 / RFU, TAF9 / Fold change vs veh, TAF9 / RFU, SLC1A5 / Fold change vs veh, SLC1A5 / RFU, SLMO2 / Fold change vs veh, SLMO2 / RFU, ABCC4 / Fold change vs veh, ABCC4 / RFU, LOC101060439 /// RAP1B / Fold change vs veh, LOC101060439 /// RAP1B / RFU, RFX7 / Fold change vs veh, RFX7 / RFU, GTPBP10 / Fold change vs veh, GTPBP10 / RFU, CNEP1R1 / Fold change vs veh, CNEP1R1 / RFU, BIVM-ERCC5 /// ERCC5 / Fold change vs veh, BIVM-ERCC5 /// ERCC5 / RFU, ILF3 / Fold change vs veh, ILF3 / RFU 11762660_at / Fold change /veh 11762660_at / RFU VCAN (11757783_s_at) / Fold change /veh VCAN (11757783_s_at) / RFU DDX43 (11728927_at) / Fold change /veh DDX43 (11728927_at) / RFU KRT8 (11758188_x_at) / Fold change /veh KRT8 (11758188_x_at) / RFU NKD1 (11759106_at) / Fold change /veh NKD1 (11759106_at) / RFU SRD5A1 (11742802_a_at) / Fold change /veh SRD5A1 (11742802_a_at) / RFU TPSAB1 /// TPSB2 (11721975_s_at) / Fold change /veh TPSAB1 /// TPSB2 (11721975_s_at) / RFU GSTM3 (11746129_a_at) / Fold change /veh GSTM3 (11746129_a_at) / RFU IL23R (11737362_x_at) / Fold change /veh IL23R (11737362_x_at) / RFU TMEM51 (11727254_a_at) / Fold change /veh TMEM51 (11727254_a_at) / RFU PIWIL2 (11732686_x_at) / Fold change /veh PIWIL2 (11732686_x_at) / RFU ORM1 (11744905_x_at) / Fold change /veh ORM1 (11744905_x_at) / RFU CCDC152 (11743942_at) / Fold change /veh CCDC152 (11743942_at) / RFU ECM1 (11717891_a_at) / Fold change /veh ECM1 (11717891_a_at) / RFU IL23R (11748794_a_at) / Fold change /veh IL23R (11748794_a_at) / RFU TNFAIP8L3 (11732012_x_at) / Fold change /veh TNFAIP8L3 (11732012_x_at) / RFU MBOAT4 (11741988_at) / Fold change /veh MBOAT4 (11741988_at) / RFU 11764193_at / Fold change /veh 11764193_at / RFU TMEM53 (11763286_at) / Fold change /veh TMEM53 (11763286_at) / RFU MAGEB2 (11727129_at) / Fold change /veh MAGEB2 (11727129_at) / RFU TMEM200A (11744735_a_at) / Fold change /veh TMEM200A (11744735_a_at) / RFU CCDC152 (11751479_a_at) / Fold change /veh CCDC152 (11751479_a_at) / RFU FAM211A (11726209_a_at) / Fold change /veh FAM211A (11726209_a_at) / RFU RGS16 (11746705_a_at) / Fold change /veh RGS16 (11746705_a_at) / RFU VCAN (11755009_s_at) / Fold change /veh VCAN (11755009_s_at) / RFU RHOB (11743442_s_at) / Fold change /veh RHOB (11743442_s_at) / RFU RGS16 (11720943_a_at) / Fold change /veh RGS16 (11720943_a_at) / RFU RGS16 (11720944_at) / Fold change /veh RGS16 (11720944_at) / RFU, VPS4B / Fold change vs veh, VPS4B / RFU, CREB1 / Fold change vs veh, CREB1 / RFU, DNAJC13 / Fold change vs veh, DNAJC13 / RFU, GNAQ / Fold change vs veh, GNAQ / RFU, CDK5R1 / Fold change vs veh, CDK5R1 / RFU, ZRANB3 / Fold change vs veh, ZRANB3 / RFU, CUL4A / Fold change vs veh, CUL4A / RFU, CCNY / Fold change vs veh, CCNY / RFU, UFL1 / Fold change vs veh, UFL1 / RFU, COG3 / Fold change vs veh, COG3 / RFU, DIAPH2 / Fold change vs veh, DIAPH2 / RFU, SKA2 / Fold change vs veh, SKA2 / RFU, AFF3 / Fold change vs veh, AFF3 / RFU, LMF1 / Fold change vs veh, LMF1 / RFU, IPO11 / Fold change vs veh, IPO11 / RFU, DFFB / Fold change vs veh, DFFB / RFU, FOXP1 / Fold change vs veh, FOXP1 / RFU, CARD8 / Fold change vs veh, CARD8 / RFU, STRN3 / Fold change vs veh, STRN3 / RFU, ADK / Fold change vs veh, ADK / RFU, RASSF2 / Fold change vs veh, RASSF2 / RFU, WIPF1 / Fold change vs veh, WIPF1 / RFU, LARP1B / Fold change vs veh, LARP1B / RFU, RASA1 / Fold change vs veh, RASA1 / RFU, RB1 / Fold change vs veh, RB1 / RFU, PPFIA1 / Fold change vs veh, PPFIA1 / RFU, MAT2A / Fold change vs veh, MAT2A / RFU, CCT5 / Fold change vs veh, CCT5 / RFU, WDR92 / Fold change vs veh, WDR92 / RFU, CUX1 / Fold change vs veh, CUX1 / RFU, TTC7A / Fold change vs veh, TTC7A / RFU, TMEM135 / Fold change vs veh, TMEM135 / RFU, DEPTOR / Fold change vs veh, DEPTOR / RFU, CPM / Fold change vs veh, CPM / RFU, DNAJB6 / Fold change vs veh, DNAJB6 / RFU, CACNA2D3 / Fold change vs veh, CACNA2D3 / RFU, DTX4 / Fold change vs veh, DTX4 / RFU, TFCP2 / Fold change vs veh, TFCP2 / RFU, GMCL1 /// GMCL1P1 / Fold change vs veh, GMCL1 /// GMCL1P1 / RFU, AEBP2 / Fold change vs veh, AEBP2 / RFU, SNHG1 /// SNORD22 /// SNORD25 /// SNORD26 /// SNORD27 /// SNORD28 /// SNORD29 /// SNORD31 / Fold change vs veh, SNHG1 /// SNORD22 /// SNORD25 /// SNORD26 /// SNORD27 /// SNORD28 /// SNORD29 /// SNORD31 / Fold change (Aza/veh), C12orf56 (ProbeSet 11735607_a_at) / Fold change (ACY-1035/veh), C12orf56 (ProbeSet 11735607_a_at) / Fold change (Aza/veh), FGFR1OP (ProbeSet 11751329_s_at) / Fold change (ACY-1035/veh), FGFR1OP (ProbeSet 11751329_s_at) / Fold change (Aza/veh), VPS36 (ProbeSet 11739960_a_at) / Fold change (ACY-1035/veh), VPS36 (ProbeSet 11739960_a_at) / RFU SYPL1 (11715823_x_at) / Fold change /veh SYPL1 (11715823_x_at) / RFU IGFBP7 (11715501_s_at) / Fold change /veh IGFBP7 (11715501_s_at) / RFU REEP3 (11722064_at) / Fold change /veh REEP3 (11722064_at) / RFU IGLL1 (11728026_x_at) / Fold change /veh IGLL1 (11728026_x_at): dose or concentration left out as unconfirmed
Details: ProbeSet 11719817_x_at; LIST B

Structure (SMILES): Nc1ncn([C@@H]2O[C@H](CO)[C@@H](O)[C@H]2O)c(=O)n1 [azacitidine]
- Fold change vs veh, BET1: 0.89
